The record followed here is patent US4575560A, “Insecticidal diaminoguanidine hydrazone compounds” (American Cyanamid Company, priority 1985, dated 1986).

Assay [1] has as its system Tobacco Budworm 3rd Instar. Description: Tobacco budworm secondary test, third-instar larvae on treated cotton cotyledons. It is filed as in vivo, Heliothis virescens (Fabricus).
The test system of the next assay is Southern Armyworm. Description: Southern armyworm test, third-instar larvae on treated Sieva lima bean leaves. The settings on record: third-instar larvae. The format is in vivo, Spodoptera eridania (Cramer). As for the experimental part: Test formulations and procedures used for evaluation are as follows:
A. 100 mg of the test material is weighed, placed in a funnel over a 113 g narrow-mouth bottle, rinsed into the bottle with a 35 mL scoop of acetone, followed by a 35 mL scoop of water and another 35 mL scoop of acetone to yield 1000 ppm in 65% acetone. If the material is not soluble, it is broken up with a glass rod and used as a suspension.
B. This stock solution ("A") is used to make 300 ppm solutions or suspensions by pipetting 30 mL of "A" into a bottle containing 70 mL of 50% acetone to yield 300 ppm. Further dilutions in 50% acetone are made as required.
C. Tests requiring 10 ppm acetone solutions: 1 mL of "A" is pipetted into 99 mL of acetone to yield 10 ppm. Additional dilutions are made using 50% acetone as required.
Southern Armyworm--Spodoptera eridania (Cramer)
A Sieva lima bean plant with just the primary leaves expanded to 1.91 cm is dipped for three seconds with agitation in the "A" solution of 1000 ppm and set in the hood to dry. Following this, one leaf is placed in a 9 cm petri dish which has a moist filter paper in the bottom and 10 third-instar armyworm larvae about 1 cm long. This dish is covered and held at 80° F., and 50% r.h. After two days, mortality counts and estimates of the amount of feeding are made. Compounds showing partial kill and/or inhibition of feeding are held for an extra day for further observations.
All compounds showing activity as defined above are retested, using the second leaf on the bean plant, after an interval of seven days from original treatment, as an assay of residual activity.

In the case of `N=C(NN=Cc1ccc(OC(F)(F)C(F)Cl)cc1)N(N=Cc1ccc(OC(F)(F)C(F)Cl)cc1)C(=O)OCCCl` (stereo not drawn) [drawing 57 / drawing 58 / ClCH2 CH2], in assay [1] (1000 ppm), the “Mortality Rating Tobacco Budworm 3rd Instar” value was 0 (No effect) and the “reduced feeding (R) Tobacco Budworm 3rd Instar” value (from here on “reduced feeding”) is “R”. In addition, the “Mortality Rating Southern Armyworm” value with Southern Armyworm (100 ppm) is on record as 9 (100%). In addition, in the assay with Southern Armyworm (1000 ppm), the “Mortality Rating Southern Armyworm” value was 9 (100%).
With `N=C(NN=Cc1ccc(Cl)cc1)NN=Cc1ccc(OC(F)(F)C(F)F)cc1` [Cl / HCF2 CF2 O / S], in assay [1] (1000 ppm), the “Mortality Rating Tobacco Budworm 3rd Instar” value is reported as 0 (No effect) and the “reduced feeding” value was “R”.
On to `N=C(NN=Cc1ccc(Cl)cc1)NN=Cc1ccc(OC(F)(F)C(F)F)cc1` [Cl / HCF2 CF2 O / B], for which the “Mortality Rating Tobacco Budworm 3rd Instar” value in assay [1] (100 ppm) and in assay [1] (1000 ppm) was 0 (No effect) in each case. Also, the “reduced feeding” value in assay [1] (1000 ppm) was “R”. In addition, the “Mortality Rating Southern Armyworm” value in the assay with Southern Armyworm (10 ppm) is on record as 0 (No effect); in the assay on Southern Armyworm (100 ppm), 9 (100%); in the assay on Southern Armyworm (1000 ppm) it was 9 (100%).
With `N=C(NN=Cc1ccc(C(F)(F)F)cc1)N(N=Cc1ccc(C(F)(F)F)cc1)C(=O)OCC(Cl)(Cl)Cl` [CF3 / CF3 / Cl3 CCH2], the results for the “Mortality Rating Tobacco Budworm 3rd Instar” value in assay [1] (10 ppm), in assay [1] (100 ppm) and in assay [1] (1000 ppm) were 0 (No effect), 0 (No effect) and 8 (86-99%), respectively. The “reduced feeding” value in assay [1] (100 ppm) is “R”. In addition, the “Mortality Rating Southern Armyworm” value in the assay with Southern Armyworm (10 ppm) is 8 (86-99%); with Southern Armyworm (100 ppm), 9 (100%); in the assay with Southern Armyworm (1000 ppm), 9 (100%).
On to `N=C(NN=Cc1ccc(C(F)(F)F)cc1)N(N=Cc1ccc(C(F)(F)F)cc1)C(=O)OCCCl` [CF3 / CF3 / ClCH2 CH2, 3-[p-(trifluoromethyl)benzylidene]-2-{{[p-(trifluoromethyl)benzylidene]amino}amidino}carbazate ester], for which the “Mortality Rating Tobacco Budworm 3rd Instar” value is recorded as 0 (No effect) in assay [1] (100 ppm) and 2 (26-35%) in assay [1] (1000 ppm). In addition, the “reduced feeding” value in assay [1] (1000 ppm) is reported as “R”. The “Mortality Rating Southern Armyworm” value in the assay with Southern Armyworm (10 ppm) is 8 (86-99%); with Southern Armyworm (100 ppm), 9 (100%); in the assay on Southern Armyworm (1000 ppm), 9 (100%).
Turning to `CCOC(=O)N(N=Cc1ccc(OC(F)(F)F)cc1)C(=N)NN=Cc1ccc(OC(F)(F)F)cc1` [CF3 O / CF3 O / C2 H5], the “Mortality Rating Tobacco Budworm 3rd Instar” value is given as 2 (26-35%) in assay [1] (100 ppm) and 7 (76-85%) in assay [1] (1000 ppm). Besides, the “reduced feeding” value in assay [1] (1000 ppm) is “R”. Also, the “Mortality Rating Southern Armyworm” value is reported as 6 (66-75%) in the assay on Southern Armyworm (10 ppm), 9 (100%) with Southern Armyworm (100 ppm) and 9 (100%) with Southern Armyworm (1000 ppm).
Take `CCOC(=O)N(N=Cc1ccc(C(F)(F)F)cc1)C(=N)NN=Cc1ccc(C(F)(F)F)cc1` [CF3 / CF3 / C2 H5, 3-[p-(trifluoromethyl)benzylidene]-2-{{[p-(trifluoromethyl)benzylidene]amino}amidino}carbazate]: the “Mortality Rating Southern Armyworm” value is 9 (100%) in the assay on Southern Armyworm (10 ppm), 7 (76-85%) with Southern Armyworm (100 ppm) and 9 (100%) in the assay with Southern Armyworm (1000 ppm).
For `COC(=O)N(N=Cc1ccc(OC(F)(F)C(F)F)cc1)C(=N)NN=Cc1ccc(OC(F)(F)C(F)F)cc1` [HCF2 CF2 O / HCF2 CF2 O / CH3], the “Mortality Rating Southern Armyworm” value with Southern Armyworm (100 ppm) and in the assay on Southern Armyworm (1000 ppm) was 9 (100%) throughout.
As to `N=C(NN=Cc1ccc(SC(F)(F)C(F)F)cc1)NN=Cc1ccc(SC(F)(F)C(F)F)cc1` [HCF2 CF2 S / S], in the assay with Southern Armyworm (10 ppm), the “Mortality Rating Southern Armyworm” value was 6 (66-75%).
Turning to `CCOC(=O)N(N=Cc1ccc(Cl)cc1)C(=N)NN=Cc1ccc(Cl)cc1` [Cl / Cl / C2 H5], the “Mortality Rating Southern Armyworm” value in the assay on Southern Armyworm (100 ppm) is given as 9 (100%); in the assay with Southern Armyworm (1000 ppm), 8 (86-99%).
